Reference: publication PMC10648349, “Aromatic Diboronic Acids as Effective KPC/AmpC Inhibitors” (Molecules, 2023)
Values after ≈ are worked out from the molar mass of the structure shown.

Experiments:
[1] = system: C. guilliermondii IBA 155; assay: antifungal activity (disc-diffusion, MIC, MFC); format: cell-based, Candida guilliermondii; conditions: Meyerozyma guilliermondii, IBA155; for MIC: fluconazole by Etest
Procedure, shortened: (§1)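 Testing of direct antimicrobial action relied on CLSI and EUCAST protocols, namely disc diffusion, MIC and cidal-concentration determinations. Each disc carried 0.4 mg of test agent.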

[2] = system: K. pneumoniae ATCC BAA 1705 KPC-2-positive; assay: combination disc test CDT-KPC; format: cell-based; conditions: Klebsiella pneumoniae, BAA1705, read-out: Diameter of inhibition zone, MEM-10 disc with agent; for zone of inhibition at 100 µg/disc: agent 0.1 mg per disc
E. coli 77 CMY-2(+) = assay: MIC of tested agent alone, microdilution; format: cell-based; conditions: Escherichia coli; read-out: MIC of agent alone
Procedure, shortened: (§2)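 Broth microdilution checkerboard: β-lactam in seven two-fold dilutions (1–64 mg/L) against tested agent or PBA in three two-fold dilutions (4–16 mg/L). Antibiotic MICs were read at each agent level, with agent-alone MICs run in parallel by microdilution.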

[3] = system: K. pneumoniae 81 KPC-3(+); assay: MIC of tested agent alone, microdilution; format: cell-based; conditions: Klebsiella pneumoniae; read-out: MIC of agent alone
Procedure, shortened: as §2

[4] = system: K. pneumoniae 83 KPC-3(+), CTX-M-3(+); assay: MIC of tested agent alone, microdilution; format: cell-based; conditions: Klebsiella pneumoniae; read-out: MIC of agent alone
Procedure, shortened: as §2

E. coli 76 KPC-2(+) = assay: MIC of tested agent alone, microdilution; format: cell-based; conditions: Escherichia coli; read-out: MIC of agent alone
Procedure, shortened: as §2

[5] = system: K. pneumoniae ATCC BAA-1705 KPC-2(+); assay: MIC of tested agent alone, microdilution; format: cell-based; conditions: Klebsiella pneumoniae, ATCCBAA1705; read-out: MIC of agent alone
Procedure, shortened: as §2

[6] = system: P. aeruginosa MUW 700 AmpC(+); assay: MIC of tested agent alone, microdilution; format: cell-based; conditions: Pseudomonas aeruginosa; read-out: MIC of agent alone
Procedure, shortened: as §2

[7] = system: P. aeruginosa MUW 700 cAmpC-positive; assay: combination disc test CDT-AmpC; format: cell-based; conditions: Pseudomonas aeruginosa, read-out: Diameter of inhibition zone, CAZ-30 disc with agent; for zone of inhibition at 100 µg/disc: agent 0.1 mg per disc
B. subtilis ATCC 6633 = assay: direct antimicrobial activity (disc-diffusion); format: cell-based; conditions: Bacillus subtilis, ATCC6633; 0.4 mg per disc, 9 mm disc (linezolid 0.03 mg, 6 mm disc); - no zone; read-out: Diameter of inhibition zone
Procedure, shortened: as §1

C. tropicalis ATCC 750 = assay: antifungal activity (disc-diffusion, MIC, MFC); format: cell-based; conditions: Candida tropicalis, ATCC750; for MIC: fluconazole by Etest
Procedure, shortened: as §1

S. cerevisiae ATCC 9763 = assay: antifungal activity (disc-diffusion, MIC, MFC); format: cell-based; conditions: Saccharomyces cerevisiae, ATCC9763; for zone of inhibition at 0.4 mg/disc: 0.4 mg per disc, 9 mm disc (fluconazole 0.025 mg, 6 mm disc), - no zone, read-out: Diameter of inhibition zone; for MIC: fluconazole by Etest
Procedure, shortened: as §1

C. tropicalis IBA 171 = assay: antifungal activity (disc-diffusion, MIC, MFC); format: cell-based; conditions: Candida tropicalis, IBA171; for MIC: fluconazole by Etest
Procedure, shortened: as §1

C. albicans ATCC 90028 = assay: antifungal activity (disc-diffusion, MIC, MFC); format: cell-based; conditions: Candida albicans, ATCC90028; for MIC: fluconazole by Etest
Procedure, shortened: as §1

E. faecalis ATCC 29212 = assay: direct antimicrobial activity (disc-diffusion, MIC, MBC); format: cell-based; conditions: Enterococcus faecalis, ATCC29212
Procedure, shortened: as §1

E. faecium ATCC 6057 = assay: as above; format: cell-based; conditions: Enterococcus faecium, ATCC6057
Procedure, shortened: as §1

S. aureus ATCC 6538P = assay: as above; format: cell-based; conditions: Staphylococcus aureus, ATCC6538P; for zone of inhibition at 0.4 mg/disc: 0.4 mg per disc, 9 mm disc (linezolid 0.03 mg, 6 mm disc), - no zone, read-out: Diameter of inhibition zone
Procedure, shortened: as §1

[8] = system: S. epidermidis ATCC 12228; assay: as above; format: cell-based; conditions: Staphylococcus epidermidis, ATCC12228; for zone of inhibition at 0.4 mg/disc: 0.4 mg per disc, 9 mm disc (linezolid 0.03 mg, 6 mm disc), - no zone, read-out: Diameter of inhibition zone
Procedure, shortened: as §1

[9] = system: S. aureus ATCC 43300 MRSA; assay: as above; format: cell-based; conditions: Staphylococcus aureus; for zone of inhibition at 0.4 mg/disc: 0.4 mg per disc, 9 mm disc (linezolid 0.03 mg, 6 mm disc), - no zone, read-out: Diameter of inhibition zone
Procedure, shortened: as §1

[10] = system: P. aeruginosa MUW 700 cAmpC-positive; assay: checkerboard microdilution, antibiotic plus tested agent; format: cell-based, Pseudomonas aeruginosa
Procedure: To examine the ability of tested agents to inhibit various carbapenemases and AmpC-enzymes, their synergy with antibiotics against β-lactamase-producing strains was assessed by checkerboard microdilution assay, with slight modification. Checkerboards were prepared in microtiter plates, with seven two-fold dilutions of β-lactams (1–64 mg/L) in the rows and three two-fold dilutions of tested agents and PBA (4–16 mg/L) in the columns. Tested agents’ concentrations were limited to the concentrations at which the newest commercially available BLIs (vaborbactam, relebactam, and avibactam) are used in susceptibility testing. Plates were inoculated and incubated as in the MIC microdilution assay. Parallel, MICs of tested agents and PBA alone were determined by the microdilution assay. Following the incubation, antibiotic MICs in the presence of each agent’s concentration were determined. Moreover, for the first well without growth found in each checkerboard row and column along the growth/non-growth interface, the fractional inhibitory concentration index (FICI) was calculated using the formula below:FICI = [(MIC of antibiotic in combination)/(MIC of antibiotic alone)] + [(MIC of the tested agent in combination)/(MIC of tested agent alone)].
For calculations, all off-scale MICs were converted to the next-highest doubling concentration. Subsequently, both the average and the lowest FICI were interpreted. The interpretation was as follows: FICI ≤ 0.5, synergy; 0.5 < FICI ≤ 4, indifference and FICI > 4, antagonism. Primarily, examined combinations consisted of meropenem (Pol-Aura, Morag, Poland) plus tested agents against carbapenemases-producing strains and ceftazidime (Pol-Aura, Morag, Poland) plus tested agents against AmpC-producing strains. For agents that reduced meropenem MIC at least 4-fold for at least two tested strains, similar assays were performed with imipenem (Pol-Aura, Morag, Poland) and ertapenem (Pol-Aura, Morag, Poland).

[11] = 0.4 mg per disc, 9 mm disc (fluconazole 0.025 mg, 6 mm disc), - no zone, read-out: Diameter of inhibition zone
[12] = 0.4 mg per disc, 9 mm disc (linezolid 0.03 mg, 6 mm disc), - no zone, read-out: Diameter of inhibition zone

MIC [1]	MIC (E. coli 77 CMY-2(+))	MIC [3]	MIC [4]	MIC (E. coli 76 KPC-2(+))	MIC [5]	MIC [6]	MIC (C. tropicalis ATCC 750)	MIC (S. cerevisiae ATCC 9763)	MIC (C. tropicalis IBA 171)	MIC (C. albicans ATCC 90028)	MIC (E. faecalis ATCC 29212)	MIC (E. faecium ATCC 6057)	MIC (S. aureus ATCC 6538P)	MIC [8]	MIC [9]	Structure (SMILES)	zone of inhibition at 100 µg/disc [2]	zone of inhibition at 100 µg/disc [7]	zone of inhibition at 0.4 mg/disc (S. cerevisiae ATCC 9763)	zone of inhibition at 0.4 mg/disc (S. aureus ATCC 6538P)	other results
25 µg/mL (≈ 77.3 µM)	100 µg/mL	200 µg/mL	200 µg/mL	100 µg/mL	200 µg/mL	> 400 µg/mL	50 µg/mL (≈ 155 µM)	50 µg/mL (≈ 155 µM)	25 µg/mL (≈ 77.3 µM)	12.5 µg/mL (≈ 38.6 µM)	200 µg/mL (≈ 618 µM)	200 µg/mL (≈ 618 µM)	25 µg/mL (≈ 77.3 µM)	50 µg/mL (≈ 155 µM)	100 µg/mL (≈ 309 µM)	OB(O)c1cc(Br)c(B(O)O)cc1Br [1i]	6 mm	16 mm	24 mm	14 mm	zone of inhibition at 0.4 mg/disc [1, 11]: 34 mm; zone of inhibition at 0.4 mg/disc (B. subtilis ATCC 6633): 18 mm; zone of inhibition at 0.4 mg/disc (C. tropicalis ATCC 750; [11]): 25 mm; zone of inhibition at 0.4 mg/disc (C. tropicalis IBA 171; [11]): 29 mm; zone of inhibition at 0.4 mg/disc (C. albicans ATCC 90028; [11]): 31 mm; zone of inhibition at 0.4 mg/disc (E. faecalis ATCC 29212; [12]): 14 mm; zone of inhibition at 0.4 mg/disc (E. faecium ATCC 6057; [12]): 11 mm; zone of inhibition at 0.4 mg/disc [8]: 21 mm; zone of inhibition at 0.4 mg/disc [9]: 11 mm
> 400 µg/mL	200 µg/mL	200 µg/mL	200 µg/mL	200 µg/mL	400 µg/mL	> 400 µg/mL	> 400 µg/mL	> 400 µg/mL	> 400 µg/mL	> 400 µg/mL	400 µg/mL (≈ 1980 µM)	400 µg/mL (≈ 1980 µM)	50 µg/mL (≈ 248 µM)	50 µg/mL (≈ 248 µM)	100 µg/mL (≈ 496 µM)	OB(O)c1cc(B(O)O)c(F)cc1F [2c]	6 mm	20 mm	–	20 mm	zone of inhibition at 0.4 mg/disc [9]: 19 mm; Average FICI with ceftazidime [10]: 0.22; Interpretation of the average FICI with ceftazidime [10]: S (FICI ≤ 0.5, synergy); Interpretation of the lowest FICI with ceftazidime [10]: S (FICI ≤ 0.5, synergy); The lowest FICI with ceftazidime [10]: 0.15
400 µg/mL (≈ 2180 µM)	> 400 µg/mL	> 400 µg/mL	> 400 µg/mL	> 400 µg/mL	> 400 µg/mL	> 400 µg/mL	200 µg/mL (≈ 1090 µM)	100 µg/mL (≈ 544 µM)	200 µg/mL (≈ 1090 µM)	400 µg/mL (≈ 2180 µM)	> 400 µg/mL	> 400 µg/mL	> 400 µg/mL	400 µg/mL (≈ 2180 µM)	> 400 µg/mL	OB(O)c1cccc(F)c1B(O)O [3b]	–	–	13 mm	–	zone of inhibition at 300 µg/disc ([2]; agent 0.3 mg per disc): 14 mm; zone of inhibition at 300 µg/disc ([7]; agent 0.3 mg per disc): 22 mm; zone of inhibition at 0.4 mg/disc [8]: 21 mm; Average FICI with ceftazidime [10]: 0.60; Interpretation of the average FICI with ceftazidime [10]: I (0.5 < FICI ≤ 4, indifference); Interpretation of the lowest FICI with ceftazidime [10]: S (FICI ≤ 0.5, synergy); The lowest FICI with ceftazidime [10]: 0.27
